Data as given in article PMC5431176, “Identification of a High-Affinity Pyruvate Receptor in Escherichia coli” (Scientific Reports, 2017).

Target: T1, BtsS (YehU) (Escherichia coli, UniProt P0AD14)
T1 construct: full-length BtsS-6His in membrane vesicles
Experiment: DRaCALA with […]-pyruvate on BtsS membrane vesicles, competition with cold pyruvate
Format: binding

T1 sequence (P0AD14 whole entry): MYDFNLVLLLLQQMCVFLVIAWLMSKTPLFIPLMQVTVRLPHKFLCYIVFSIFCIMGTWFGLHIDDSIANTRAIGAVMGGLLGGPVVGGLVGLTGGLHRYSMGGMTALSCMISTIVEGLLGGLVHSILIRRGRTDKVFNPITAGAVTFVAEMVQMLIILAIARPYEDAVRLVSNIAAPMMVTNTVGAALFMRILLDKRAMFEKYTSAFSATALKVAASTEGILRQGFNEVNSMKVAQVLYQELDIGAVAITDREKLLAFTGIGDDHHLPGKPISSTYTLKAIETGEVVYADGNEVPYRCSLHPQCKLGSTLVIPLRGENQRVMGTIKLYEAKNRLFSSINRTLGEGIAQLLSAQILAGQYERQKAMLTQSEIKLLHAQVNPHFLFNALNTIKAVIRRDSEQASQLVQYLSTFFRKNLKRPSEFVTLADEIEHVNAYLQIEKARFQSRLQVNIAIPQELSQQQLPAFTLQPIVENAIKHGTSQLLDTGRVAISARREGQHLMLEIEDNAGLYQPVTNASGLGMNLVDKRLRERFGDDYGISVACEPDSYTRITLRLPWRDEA

CC(=O)C(=O)O [pyruvate]
Kd: 58.6 ± 8.8 µM
